Reference: PubChem BioAssay (NCI)
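Each compound was tested at five concentrations against cells in 96-well plates for 48 hours. Definition used: TGI = concentration required for complete inhibition of growth.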

Legend:
Assay in all cases: NCI tumour cell line growth inhibition, 48 h
ACHN renal = system: ACHN renal
U251 CNS = system: U251 CNS
SK-MEL-5 melanoma = system: SK-MEL-5 melanoma
SF-539 CNS = system: SF-539 CNS
MDA-MB-231 breast = system: MDA-MB-231 breast
786-0 renal = system: 786-0 renal
MCF7 breast = system: MCF7 breast
EKVX NSCLC = system: EKVX NSCLC
HOP-62 NSCLC = system: HOP-62 NSCLC
MDA-MB-435 = system: MDA-MB-435
SK-OV-3 ovarian = system: SK-OV-3 ovarian
DU-145 prostate = system: DU-145 prostate
SF-295 CNS = system: SF-295 CNS
OVCAR-4 ovarian = system: OVCAR-4 ovarian
HT29 colon = system: HT29 colon
NCI-H460 lung = system: NCI-H460 lung
NCI-H522 lung = system: NCI-H522 lung
MDA-N = system: MDA-N
M14 melanoma = system: M14 melanoma
A549 NSCLC = system: A549 NSCLC
UACC-62 melanoma = system: UACC-62 melanoma
HS 578T breast = system: HS 578T breast
SNB-75 CNS = system: SNB-75 CNS
HL-60(TB) leukemia = system: HL-60(TB) leukemia
RPMI-8226 leukemia = system: RPMI-8226 leukemia
SK-MEL-2 melanoma = system: SK-MEL-2 melanoma
CAKI-1 renal = system: CAKI-1 renal
HOP-92 NSCLC = system: HOP-92 NSCLC
OVCAR-3 ovarian = system: OVCAR-3 ovarian
KM12 colon = system: KM12 colon
NCI-H226 lung = system: NCI-H226 lung
A498 renal = system: A498 renal
SK-MEL-28 melanoma = system: SK-MEL-28 melanoma
OVCAR-8 ovarian = system: OVCAR-8 ovarian
T-47D breast = system: T-47D breast
COLO 205 colon = system: COLO 205 colon
HCT-116 colon = system: HCT-116 colon
HCT-15 colon = system: HCT-15 colon
MOLT-4 leukemia = system: MOLT-4 leukemia
RXF 393 renal = system: RXF 393 renal
CCRF-CEM leukemia = system: CCRF-CEM leukemia
UACC-257 melanoma = system: UACC-257 melanoma
MALME-3M melanoma = system: MALME-3M melanoma
SR leukemia = system: SR leukemia
NCI/ADR-RES ovarian = system: NCI/ADR-RES ovarian
SW-620 colon = system: SW-620 colon
LOX IMVI melanoma = system: LOX IMVI melanoma
TK-10 renal = system: TK-10 renal
BT-549 breast = system: BT-549 breast
SN12C renal = system: SN12C renal
OVCAR-5 ovarian = system: OVCAR-5 ovarian
UO-31 renal = system: UO-31 renal
SNB-19 CNS = system: SNB-19 CNS
SF-268 CNS = system: SF-268 CNS
NCI-H23 lung = system: NCI-H23 lung
K-562 leukemia = system: K-562 leukemia
HCC-2998 colon = system: HCC-2998 colon
PC-3 prostate = system: PC-3 prostate
IGROV1 ovarian = system: IGROV1 ovarian
LXFL 529 NSCLC = system: LXFL 529 NSCLC
DMS 114 small cell lung = system: DMS 114 small cell lung
DLD-1 colon = system: DLD-1 colon
SNB-78 CNS = system: SNB-78 CNS
DMS 273 small cell lung = system: DMS 273 small cell lung
KM20L2 colon = system: KM20L2 colon

In the case of `O=C(Nc1nc2ccccc2s1)c1cc([N+](=O)[O-])ccc1Cl`, the TGI (ACHN renal) is reported as > 100 µM, the TGI (U251 CNS) is reported as > 91.6 µM and the TGI (SK-MEL-5 melanoma) is reported as 25.1 µM. The TGI (SF-539 CNS) was 28.5 µM, the TGI (MDA-MB-231 breast) was > 100 µM and the TGI (786-0 renal) was > 58.6 µM. For the same molecule, the TGI (MCF7 breast) was > 22.6 µM, the TGI (EKVX NSCLC) was > 100 µM and the TGI (HOP-62 NSCLC) was > 100 µM. The TGI (MDA-MB-435) was > 100 µM, the TGI (SK-OV-3 ovarian) was > 100 µM and the TGI (DU-145 prostate) was 86.3 µM. The TGI (SF-295 CNS) was > 100 µM, the TGI (OVCAR-4 ovarian) was > 100 µM and the TGI (HT29 colon) was 65.9 µM. The TGI (NCI-H460 lung) was > 59.4 µM, the TGI (NCI-H522 lung) was 11.6 µM and the TGI (MDA-N) was > 31.6 µM. For the same molecule, the TGI (M14 melanoma) was > 47.8 µM, the TGI (A549 NSCLC) was > 100 µM and the TGI (UACC-62 melanoma) was > 100 µM. For the same molecule, the TGI (HS 578T breast) was 15.7 µM, the TGI (SNB-75 CNS) was > 100 µM and the TGI (HL-60(TB) leukemia) was 4.41 µM. For the same molecule, the TGI (RPMI-8226 leukemia) was > 100 µM, the TGI (SK-MEL-2 melanoma) was > 100 µM and the TGI (CAKI-1 renal) was > 100 µM. The TGI (HOP-92 NSCLC) was > 38.9 µM, the TGI (OVCAR-3 ovarian) was > 82.5 µM and the TGI (KM12 colon) was > 48.1 µM. The TGI (NCI-H226 lung) was > 100 µM, the TGI (A498 renal) was > 100 µM and the TGI (SK-MEL-28 melanoma) was > 100 µM. The TGI (OVCAR-8 ovarian) was > 45.4 µM, the TGI (T-47D breast) was > 100 µM and the TGI (COLO 205 colon) was > 100 µM. The TGI (HCT-116 colon) was > 100 µM, the TGI (HCT-15 colon) was > 41.4 µM and the TGI (MOLT-4 leukemia) was 9.93 µM. For the same molecule, the TGI (RXF 393 renal) was 15.9 µM, the TGI (CCRF-CEM leukemia) was 8.77 µM and the TGI (UACC-257 melanoma) was > 100 µM. For the same molecule, the TGI (MALME-3M melanoma) was > 100 µM, the TGI (SR leukemia) was > 100 µM and the TGI (NCI/ADR-RES ovarian) was > 76.4 µM. The TGI (SW-620 colon) was > 51.4 µM, the TGI (LOX IMVI melanoma) was 13.7 µM and the TGI (TK-10 renal) was > 100 µM. The TGI (BT-549 breast) was > 30.9 µM, the TGI (SN12C renal) was > 100 µM and the TGI (OVCAR-5 ovarian) was > 100 µM. The TGI (UO-31 renal) was > 100 µM, the TGI (SNB-19 CNS) was > 100 µM and the TGI (SF-268 CNS) was 62 µM. For the same molecule, the TGI (NCI-H23 lung) was > 43.4 µM, the TGI (K-562 leukemia) was > 100 µM and the TGI (HCC-2998 colon) was 53.6 µM. The TGI (PC-3 prostate) was > 70.3 µM.
In the case of `COC(=O)c1c(OC(C)=O)ccc2c1c1c(n2C)C(=O)c2ccccc2C1=O`, the TGI (ACHN renal) is reported as 51.5 µM, the TGI (U251 CNS) is reported as > 100 µM and the TGI (SK-MEL-5 melanoma) is reported as 47 µM. The TGI (SF-539 CNS) was 47 µM, the TGI (MDA-MB-231 breast) was > 100 µM and the TGI (786-0 renal) was > 100 µM. For the same molecule, the TGI (MCF7 breast) was > 100 µM, the TGI (EKVX NSCLC) was 92.7 µM and the TGI (HOP-62 NSCLC) was 67.4 µM. For the same molecule, the TGI (MDA-MB-435) was > 100 µM, the TGI (SK-OV-3 ovarian) was 46.2 µM and the TGI (DU-145 prostate) was 62.5 µM. The TGI (SF-295 CNS) was 67.8 µM, the TGI (OVCAR-4 ovarian) was > 100 µM and the TGI (HT29 colon) was > 100 µM. The TGI (NCI-H460 lung) was > 100 µM, the TGI (NCI-H522 lung) was 67.6 µM and the TGI (MDA-N) was > 100 µM. The TGI (M14 melanoma) was > 100 µM, the TGI (IGROV1 ovarian) was 22.3 µM and the TGI (A549 NSCLC) was 80.8 µM. The TGI (UACC-62 melanoma) was > 100 µM, the TGI (HS 578T breast) was 39.1 µM and the TGI (SNB-75 CNS) was 41.3 µM. For the same molecule, the TGI (HL-60(TB) leukemia) was > 100 µM, the TGI (RPMI-8226 leukemia) was 28 µM and the TGI (SK-MEL-2 melanoma) was 96.1 µM. The TGI (CAKI-1 renal) was 61.7 µM, the TGI (HOP-92 NSCLC) was 9.58 µM and the TGI (OVCAR-3 ovarian) was 63 µM. The TGI (KM12 colon) was 86.4 µM, the TGI (NCI-H226 lung) was > 100 µM and the TGI (A498 renal) was 41.7 µM. For the same molecule, the TGI (SK-MEL-28 melanoma) was > 100 µM, the TGI (OVCAR-8 ovarian) was > 100 µM and the TGI (T-47D breast) was 36.9 µM. The TGI (COLO 205 colon) was > 100 µM, the TGI (HCT-116 colon) was > 100 µM and the TGI (HCT-15 colon) was > 100 µM. The TGI (MOLT-4 leukemia) was > 100 µM, the TGI (RXF 393 renal) was > 100 µM and the TGI (UACC-257 melanoma) was 44.8 µM. The TGI (MALME-3M melanoma) was 55.3 µM, the TGI (SR leukemia) was > 100 µM and the TGI (NCI/ADR-RES ovarian) was > 100 µM. For the same molecule, the TGI (TK-10 renal) was 88.1 µM, the TGI (BT-549 breast) was 57 µM and the TGI (SN12C renal) was > 100 µM. For the same molecule, the TGI (OVCAR-5 ovarian) was > 100 µM, the TGI (UO-31 renal) was > 100 µM and the TGI (SNB-19 CNS) was > 100 µM. The TGI (SF-268 CNS) was > 100 µM, the TGI (NCI-H23 lung) was 61.2 µM and the TGI (K-562 leukemia) was > 100 µM. The TGI (HCC-2998 colon) was 63.5 µM and the TGI (PC-3 prostate) was 88.1 µM.
`C=C1c2[nH]c3c([N+](=O)[O-])c(OC)ccc3c2CCN1C(C)=O` was tested, and the TGI (ACHN renal) was > 100 µM, the TGI (U251 CNS) was > 100 µM and the TGI (LXFL 529 NSCLC) was > 100 µM. For the same molecule, the TGI (SF-539 CNS) was > 100 µM, the TGI (DMS 114 small cell lung) was > 100 µM and the TGI (DLD-1 colon) was 38.4 µM. For the same molecule, the TGI (786-0 renal) was > 100 µM, the TGI (EKVX NSCLC) was > 100 µM and the TGI (HOP-62 NSCLC) was > 100 µM. The TGI (SF-295 CNS) was > 100 µM, the TGI (OVCAR-4 ovarian) was > 100 µM and the TGI (HT29 colon) was > 100 µM. The TGI (NCI-H460 lung) was > 100 µM, the TGI (NCI-H522 lung) was > 100 µM and the TGI (M14 melanoma) was > 100 µM. For the same molecule, the TGI (IGROV1 ovarian) was > 100 µM, the TGI (A549 NSCLC) was > 100 µM and the TGI (UACC-62 melanoma) was > 100 µM. For the same molecule, the TGI (SNB-75 CNS) was 42.5 µM, the TGI (HL-60(TB) leukemia) was > 100 µM and the TGI (RPMI-8226 leukemia) was > 100 µM. The TGI (SK-MEL-2 melanoma) was > 100 µM, the TGI (SNB-78 CNS) was > 100 µM and the TGI (CAKI-1 renal) was > 100 µM. The TGI (OVCAR-3 ovarian) was > 100 µM, the TGI (KM12 colon) was > 100 µM and the TGI (NCI-H226 lung) was > 100 µM. The TGI (A498 renal) was > 100 µM, the TGI (SK-MEL-28 melanoma) was > 100 µM and the TGI (OVCAR-8 ovarian) was > 100 µM. For the same molecule, the TGI (COLO 205 colon) was > 100 µM, the TGI (HCT-116 colon) was > 100 µM and the TGI (HCT-15 colon) was > 100 µM. For the same molecule, the TGI (MOLT-4 leukemia) was > 100 µM, the TGI (RXF 393 renal) was > 100 µM and the TGI (CCRF-CEM leukemia) was > 100 µM. The TGI (UACC-257 melanoma) was > 100 µM, the TGI (SR leukemia) was > 100 µM and the TGI (SW-620 colon) was > 100 µM. For the same molecule, the TGI (LOX IMVI melanoma) was > 100 µM, the TGI (TK-10 renal) was > 100 µM and the TGI (DMS 273 small cell lung) was > 100 µM. The TGI (SN12C renal) was > 100 µM, the TGI (OVCAR-5 ovarian) was > 100 µM and the TGI (UO-31 renal) was > 100 µM. For the same molecule, the TGI (KM20L2 colon) was > 100 µM, the TGI (SNB-19 CNS) was > 100 µM and the TGI (SF-268 CNS) was > 100 µM. For the same molecule, the TGI (NCI-H23 lung) was > 100 µM, the TGI (K-562 leukemia) was > 100 µM and the TGI (HCC-2998 colon) was > 100 µM.
